This is an account of results in paper PMC11013284, “Chemoselective Synthesis and Anti-Kinetoplastidal Properties of 2,6-Diaryl-4H-tetrahydro-thiopyran-4-one S-Oxides: Their Interplay in a Cascade of Redox Reactions from Diarylideneacetones” (Molecules, 2024).

Data set [1] deals with Trypanosoma cruzi (Tulahuen CL2 β-galactosidase) amastigotes in hMRC-5SV2 cells. Put plainly: T. cruzi intracellular amastigote assay (β-galactosidase/CPRG). The settings on record: intracellular amastigotes, 7 days; for IC50: read-out: IC50 T. cruzi intramacrophage amastigotes (converted). Format: cell-based. Here is the method:
A nifurtimox-sensitive strain (Tulahuen CL2 β-galactosidase) in human lung fibroblast hMRC-5SV2 cells was incubated for 7 days in 96-well plates with five concentrations of compound (64, 16, 4, 1, and 0.25 μM). The parasitic burden was evaluated through the activity of the enzyme β-galactosidase on a specific chlorophenol red ß-D-galactopyranoside (CPRG) substrate. Live parasites converted the yellow-orange CPRG substrate into the red chromophore chlorophenol red, yielding a dark-red solution, which could be quantitatively measured at 540 nm after 4 h of incubation at 37 °C. The results were expressed as a percentage reduction in parasite growth/viability compared to control wells, and an IC50 was calculated.

Data set [2] relates to Trypanosoma brucei brucei trypomastigotes, suramin-sensitive strain (Squib 427). The experiment in a line: T. b. brucei growth/viability assay (resazurin). It counts as cell-based. The settings on record: 3 days. Here is the method: After 3 days, parasite growth was assessed fluorimetrically following the addition of resazurin. After 24 h at 37 °C, fluorescence was measured (λex = 550 nm, λem = 590 nm). The results were expressed as a percentage reduction in parasite growth/viability compared to control wells, and a 50% inhibitory concentration (IC50) was calculated.

A short description of data set [3]: in vitro. The conditions noted are these: human, CC50 hMRC-5 (cytotoxicity). Here is the method: (§1) The cytotoxicity of compounds was evaluated toward human diploid embryonic lung fibroblast hMRC-5SV2 cells, derived from fetal lung tissue and first described in 1970. hMRC-5SV2 cells were cultured in 96-well plates with five concentrations of the compound (64, 16, 4, 1, and 0.25 μM). After 3 days of incubation, the cell viability was assessed fluorimetrically after the addition of resazurin, and fluorescence was measured (λex = 550 nm, λem = 590 nm). The results were expressed as a percentage reduction in cell growth/viability compared to control wells, and a 50% cytotoxic concentration (CC50) was calculated. The reference cytotoxic drugs were tamoxifen or ivermectin. Additionally, toxicity toward mouse macrophages was qualitatively observed. Three concentrations were included (64, 16, and 4 µM), and the range of toxicity was ranked from the least toxic to the most toxic compound.

Data set [4] deals with human diploid embryonic lung fibroblast hMRC-5SV2 cells. The experiment in a line: in vitro. Here is the method:
as §1

The test system of data set [5] is L. infantum (MHOM/MA(BE)/67) amastigotes in primary peritoneal mouse macrophages. Put plainly: L. infantum intramacrophage amastigote assay (microscopic burden). The settings on record: 5 days, mouse macrophages as host. It counts as cell-based, Leishmania infantum. The method, then:
L. infantum (MHOM/MA(BE)/67 strain) amastigote were incubated for 5 days in 96-well plates with five concentrations of compound (64, 16, 4, 1, and 0.25 μM). Primary peritoneal mouse macrophages were used as host cells. Parasite burdens (i.e., the number of amastigotes per macrophage) were microscopically assessed. The results were expressed as a percentage reduction in parasite burden compared to untreated control wells, and an IC50 was calculated.

For data set [6], the system named is WT LV9 L. donovani intramacrophage amastigotes. Put plainly: L. donovani intramacrophage amastigote assay. Format: cell-based, Leishmania donovani. The settings on record: WT LV9, ± SD in Tables S5/S6, read-out: IC50 L. donovani intramacrophage amastigotes.
The mark [7] stands for this setting: Trypanosoma cruzi, TULAHUEN, 168 h.
[8] abbreviates: Leishmania infantum, Macrophage, 120 h.

Each structure is given as a SMILES string. Read-outs that look alike come from different tables or passages of the source. Bounds are passed on as bounds.

Turning to `CC1CS(=O)(=O)CCN1/N=C/c1ccc([N+](=O)[O-])o1` (stereo not shown) [Nifurtimox, nifurtimox, reference compound], in data set [1] (setting [7]), the IC50 (commonly the concentration that gives 50% inhibition) is 0.845 ± 0.2 µM.

For `O=C1C[C@H](c2ccccn2)S[C@@H](c2ccccn2)C1` (racemic) [2w], the IC50 in data set [2] (Trypanosoma brucei, 72 h) was 26.1 µM; in data set [1] (setting [7]) it was greater than 64 µM; in data set [1] it was no less than 64 µM; in data set [5] it was no less than 64 µM; in data set [5] (setting [8]), greater than 64 µM; in data set [6] (Leishmania donovani), greater than 100 µM. Moreover, the CC50 (as a rule, the concentration giving 50% cytotoxicity) at 3 days in data set [3] was greater than 64 µM. In data set [4] (human, 3 days), the CC50 is no less than 64 µM.

On to `O=C1C[C@@H](c2ccccc2Cl)S[C@@H](c2ccccc2Cl)C1` [2’e], for which the IC50 is 37.6 µM in data set [2], 35 µM in data set [1] and greater than 64 µM in data set [5]. In data set [4], the CC50 is greater than 64 µM.

Take `COc1ccc(/C=C/C(=O)/C=C/c2ccc(OC)cc2)cc1` [1d]: the IC50 in data set [2] is 1.24 µM; in data set [2] (Trypanosoma brucei, 72 h), 1.2 µM; in data set [1] (setting [7]), 10.7 µM; in data set [5], no less than 64 µM; in data set [5] (setting [8]), greater than 64 µM. The CC50 at 3 days in data set [3] was greater than 64 µM. Moreover, the CC50 in data set [4] (human, 3 days) was no less than 64 µM.

For the compound `CC[C@H](C)[C@H]1O[C@]2(CC[C@@H]1C)C[C@@H]1C[C@@H](C/C=C(\C)[C@@H](O[C@H]3C[C@H](OC)[C@@H](O[C@H]4C[C@H](OC)[C@@H](O)[C@H](C)O4)[C@H](C)O3)[C@@H](C)/C=C/C=C3\CO[C@@H]4[C@H](O)C(C)=C[C@@H](C(=O)O1)[C@]34O)O2` [ivermectine, ivermectin, reference compound], the CC50 in data set [4] (read-out: CC50 hMRC-5 (cytotoxicity), human hMRC-5SV2 fibroblasts, 3 days) was 3.5 µM.

For `COc1cc(/C=C/C(=O)/C=C/c2ccc(O)c(OC)c2)ccc1O` [1i], the IC50 is no more than 0.3 µM in data set [2], 1 µM in data set [1] and no less than 32 µM in data set [5]. In data set [4], this compound displayed a CC50 of 1.1 µM.

As to `O=C(/C=C/c1ccccc1)/C=C/c1ccncc1` [1’o], the IC50 is no more than 0.2 µM in data set [2], no more than 0.2 µM in data set [1] and 0.5 µM in data set [5]. Besides, the midpoint of cytotoxicity in data set [4], the CC50, lay at 2 µM.

For `COc1ccc(C2CC(=O)CC(c3ccc(OC)cc3)[S+]2[O-])cc1` (mixture of isomers) [3d, (±)-trans-2,6-Di-(p-anisyl)-4H-tetrahydrothiopyran-4-one 1-oxide], the IC50 in data set [2] (Trypanosoma brucei, 72 h) is 3.1 µM; in data set [1], 8.9 µM; in data set [5], no less than 64 µM; in data set [6], 50.2 µM. The CC50 at 3 days in data set [3] worked out at 32.2 µM.

As for `CN(C)c1ccc(/C=C/C(=O)/C=C/c2ccc(C(F)(F)F)cc2)cc1` [1’c], the IC50 in data set [2] was 9.2 µM; in data set [1] it was 31.7 µM; in data set [5], 8 µM. The compound further yielded a CC50 in data set [4] greater than 64 µM.

Compound `Cc1ccc(C(=O)Nc2ccc(S(=O)(=O)O)c3cc(S(=O)(=O)O)cc(S(=O)(=O)O)c23)cc1NC(=O)c1cccc(NC(=O)Nc2cccc(C(=O)Nc3cc(C(=O)Nc4ccc(S(=O)(=O)O)c5cc(S(=O)(=O)O)cc(S(=O)(=O)O)c45)ccc3C)c2)c1` [Suramin, suramin, reference compound] came in with an IC50 in data set [2] of 0.03 µM.

On to `COc1cc(Br)c(OC)c([C@@H]2CC(=O)C[C@H](c3cc(OC)cc(Br)c3OC)S2)c1` [2’q], for which the IC50 is 32.2 µM in data set [2], 17.1 µM in data set [1] and 8.6 µM in data set [5]. In addition, the CC50 in data set [4] is greater than 64 µM.

Consider `O=C(Cn1ccnc1[N+](=O)[O-])NCc1ccccc1` [benznidazole, reference compound], for which the IC50 in data set [1] (setting [7]) is 1.93 µM.

As to `CN(C)c1ccc(/C=C/C(=O)/C=C/c2ccc(F)cn2)cc1` [1’q], the IC50 in data set [2] was 13.3 µM; in data set [1] it was greater than 64 µM; in data set [5], 32.5 µM. Further, in data set [4], the CC50 was 32.2 µM.

Take `O=C1C[C@@H](c2ccc(F)cc2)S[C@@H](c2ccc(F)cc2)C1` [2’g]: the results for the IC50 in data set [2], in data set [1] and in data set [5] were 2.1 µM, 1.4 µM and 2.1 µM, respectively. Moreover, the CC50 in data set [4] came to 6.4 µM.

Take `COc1ccc(C2CC(=O)CC(c3ccc(OC)cc3)S2)cc1` (stereo not shown) [2′d]: the IC50 in data set [2] was no less than 64 µM; in data set [2] (Trypanosoma brucei, 72 h), greater than 64 µM; in data set [1] (setting [7]), greater than 64 µM; in data set [1], no less than 64 µM; in data set [5], no less than 64 µM; in data set [5] (setting [8]), greater than 64 µM. Besides, the IC50 in data set [6] (Leishmania donovani) was greater than 100 µM. The compound further showed a CC50 at 3 days in data set [3] greater than 64 µM. In data set [4] (human, 3 days), the CC50 was no less than 64 µM.

Take `C=CCOc1ccc(/C=C/C(=O)/C=C/c2ccc(OCC=C)c(OC)c2)cc1OC` [1k]: the IC50 is 6.8 µM in data set [2], 36.9 µM in data set [1] and greater than 64 µM in data set [5]. In addition, in data set [4], the CC50 is greater than 64 µM.

As for `CC/C(=C(\c1ccccc1)c1ccc(OCCN(C)C)cc1)c1ccccc1` [Tamoxifen, tamoxifen, reference compound], the CC50 at 3 days in data set [3] came out at 9.12 µM.

For `O=C(/C=C/c1ccccc1)/C=C/c1ccccn1` [1’n], the IC50 was no more than 0.2 µM in data set [2], 0.5 µM in data set [1] and 1.3 µM in data set [5]. The compound further returned a CC50 in data set [4] of 1.5 µM.

As to `COc1ccc(O)c(/C=C/C(=O)/C=C/c2cc(OC)ccc2O)c1` [1l], the IC50 in data set [2] (Trypanosoma brucei, 72 h) was no more than 0.3 µM; in data set [1] (setting [7]), 1 µM; in data set [5] (setting [8]), no less than 32 µM. In data set [3], this compound had a CC50 at 3 days of 1.9 µM.

As for `O=C(/C=C/c1ccccc1)/C=C/c1ccc(C(F)(F)F)cc1` [1’b], the IC50 is 2.2 µM in data set [2], 33.8 µM in data set [1] and greater than 64 µM in data set [5]. The compound also returned a CC50 in data set [4] greater than 64 µM.

Regarding `O=C(/C=C/c1ccccc1)/C=C/c1ncccn1` [1’r], the values for the IC50 in data set [2], in data set [1] and in data set [5] were no more than 0.2 µM, no more than 0.2 µM and 0.4 µM, respectively. The compound also displayed a CC50 in data set [4] of 1.6 µM.

With `COc1ccc([C@H]2CC(=O)C[C@H](c3ccc(OC)cc3)S2)cc1` (relative stereo) [2d], the IC50 in data set [2] was no less than 64 µM; in data set [2] (Trypanosoma brucei, 72 h), greater than 64 µM; in data set [1] (setting [7]) it was greater than 64 µM; in data set [1] it was no less than 64 µM; in data set [5], no less than 64 µM; in data set [5] (setting [8]) it was greater than 64 µM. For the same compound, the CC50 at 3 days in data set [3] is greater than 64 µM. The CC50 in data set [4] (human, 3 days) was no less than 64 µM.

Take `O=C1CC(c2ccccn2)SC(c2ccccn2)C1` (stereo not shown) [2′w]: the IC50 in data set [2] is 29.1 µM; in data set [2] (Trypanosoma brucei, 72 h), 29.6 µM; in data set [1] (setting [7]), greater than 64 µM; in data set [1] it was no less than 64 µM; in data set [5], no less than 64 µM; in data set [5] (setting [8]), greater than 64 µM. Moreover, the IC50 in data set [6] (Leishmania donovani) is greater than 100 µM. For the same compound, the CC50 at 3 days in data set [3] was greater than 64 µM. This compound registered a CC50 in data set [4] (human, 3 days) of no less than 64 µM.

As for `COc1cc([C@@H]2CC(=O)C[C@H](c3cc(OC)c(C)cc3OC)S2)c(OC)cc1C` [2’o], the IC50 is 32.5 µM in data set [2], 37.2 µM in data set [1] and 5.1 µM in data set [5]. The cytotoxic concentration (CC50) in data set [4] is greater than 64 µM.

As to `N#Cc1ccc(/C=C/C(=O)/C=C/c2ccccc2)cc1` [1’l], the IC50 was no more than 0.2 µM in data set [2], 3.3 µM in data set [1] and 7 µM in data set [5]. Moreover, in data set [4], half-maximal cytotoxicity (CC50) was put at 38.7 µM.

`CCCCCCCCCCCCCCCCOP(=O)([O-])OCC[N+](C)(C)C` [miltefosine, Hexadecyl-Phosphoryl-Choline, reference compound]: the IC50 in data set [6] (Leishmania donovani) is 19.1 ± 0.1 µM.

Take `COc1ccc(C2CC(=O)CC(c3ccc(OC)cc3)[S+]2[O-])cc1` (stereo not drawn) [3′d, (anti)- and (syn)-cis-2,6-Di-(p-anisyl)-4H-tetrahydro-thiopyran-4-one 1-oxides]: the 50% inhibitory concentration (IC50) in data set [2] is 2.3 µM; in data set [1], no less than 64 µM; in data set [5], no less than 64 µM; in data set [6] it was greater than 100 µM. Further, the CC50 in data set [4] (human, 3 days) is no less than 64 µM. Also, the “IC50 T. cruzi intramacrophage amastigotes” value in data set [1] was “inactive”. In addition, in data set [5], the “IC50 L. infantum intramacrophage amastigotes” value was “inactive”.
